Like-named read-outs stand apart in the source and are kept apart here.
Experiments:
Topo II [1] = conditions: read-out: Topo II IC50; cited from earlier work
HepG-2 cells [2] = test: MTT cytotoxicity assay, HepG-2; format: cell-based; conditions: Homo sapiens
[3] = tested on: HepG-2, HCT-116, MCF-7 and HeLa cells; test: MTT cytotoxicity assay, all four cancer cell lines together; format: cell-based; conditions: for Cytotoxic activity category, all four tested cancer cell lines: category in words by IC50, HepG-2, HCT-116, MCF-7, HeLa
HeLa cells = test: MTT cytotoxicity assay, HeLa; conditions: Homo sapiens
MCF-7 cells = test: MTT cytotoxicity assay, MCF-7; conditions: Homo sapiens
HCT-116 cells = test: MTT cytotoxicity assay, HCT-116; conditions: Homo sapiens
WI-38 cell line = test: In vitro cytotoxicity against normal WI-38 cell line; format: cell-based; conditions: Homo sapiens, WI-38, read-out: Normal cells IC50 WI-38
EGFR = EGFR (Homo sapiens, UniProt P00533); test: biochemical; format: biochemical
Sequence of EGFR (P00533 25-1210): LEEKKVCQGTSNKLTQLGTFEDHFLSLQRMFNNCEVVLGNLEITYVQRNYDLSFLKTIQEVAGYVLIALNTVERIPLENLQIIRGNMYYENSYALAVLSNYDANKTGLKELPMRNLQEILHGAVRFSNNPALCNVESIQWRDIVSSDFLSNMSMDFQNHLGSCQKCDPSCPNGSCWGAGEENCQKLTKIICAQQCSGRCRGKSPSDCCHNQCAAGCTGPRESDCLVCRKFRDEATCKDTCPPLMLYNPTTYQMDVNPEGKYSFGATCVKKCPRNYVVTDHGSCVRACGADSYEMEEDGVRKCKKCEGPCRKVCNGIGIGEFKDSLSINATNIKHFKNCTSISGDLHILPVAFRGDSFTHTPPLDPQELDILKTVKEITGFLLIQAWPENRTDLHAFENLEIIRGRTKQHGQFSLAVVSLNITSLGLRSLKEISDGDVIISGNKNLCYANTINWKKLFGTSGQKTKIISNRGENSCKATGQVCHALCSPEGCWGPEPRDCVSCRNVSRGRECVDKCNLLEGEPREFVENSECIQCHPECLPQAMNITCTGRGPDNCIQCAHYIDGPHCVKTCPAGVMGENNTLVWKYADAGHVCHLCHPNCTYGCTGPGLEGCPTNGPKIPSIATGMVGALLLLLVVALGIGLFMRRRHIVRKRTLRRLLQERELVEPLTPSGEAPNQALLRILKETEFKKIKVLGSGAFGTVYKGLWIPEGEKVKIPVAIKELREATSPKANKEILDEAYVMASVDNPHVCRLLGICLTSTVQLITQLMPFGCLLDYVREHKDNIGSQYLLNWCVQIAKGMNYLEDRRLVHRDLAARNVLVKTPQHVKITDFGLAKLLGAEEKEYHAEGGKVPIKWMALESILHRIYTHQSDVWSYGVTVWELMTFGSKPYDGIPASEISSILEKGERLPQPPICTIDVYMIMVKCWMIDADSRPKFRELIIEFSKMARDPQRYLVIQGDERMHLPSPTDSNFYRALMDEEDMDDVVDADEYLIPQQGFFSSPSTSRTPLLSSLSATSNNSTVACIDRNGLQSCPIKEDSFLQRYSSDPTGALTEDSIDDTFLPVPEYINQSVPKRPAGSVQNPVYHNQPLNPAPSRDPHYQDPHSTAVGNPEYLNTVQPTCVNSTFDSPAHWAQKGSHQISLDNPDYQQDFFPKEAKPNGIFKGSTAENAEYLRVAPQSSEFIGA

VEGFR-2 = VEGFR-2 (Homo sapiens, UniProt P35968); test: In vitro VEGFR-2 enzyme inhibition assay; format: biochemical
Sequence of VEGFR-2 (P35968 20-1356): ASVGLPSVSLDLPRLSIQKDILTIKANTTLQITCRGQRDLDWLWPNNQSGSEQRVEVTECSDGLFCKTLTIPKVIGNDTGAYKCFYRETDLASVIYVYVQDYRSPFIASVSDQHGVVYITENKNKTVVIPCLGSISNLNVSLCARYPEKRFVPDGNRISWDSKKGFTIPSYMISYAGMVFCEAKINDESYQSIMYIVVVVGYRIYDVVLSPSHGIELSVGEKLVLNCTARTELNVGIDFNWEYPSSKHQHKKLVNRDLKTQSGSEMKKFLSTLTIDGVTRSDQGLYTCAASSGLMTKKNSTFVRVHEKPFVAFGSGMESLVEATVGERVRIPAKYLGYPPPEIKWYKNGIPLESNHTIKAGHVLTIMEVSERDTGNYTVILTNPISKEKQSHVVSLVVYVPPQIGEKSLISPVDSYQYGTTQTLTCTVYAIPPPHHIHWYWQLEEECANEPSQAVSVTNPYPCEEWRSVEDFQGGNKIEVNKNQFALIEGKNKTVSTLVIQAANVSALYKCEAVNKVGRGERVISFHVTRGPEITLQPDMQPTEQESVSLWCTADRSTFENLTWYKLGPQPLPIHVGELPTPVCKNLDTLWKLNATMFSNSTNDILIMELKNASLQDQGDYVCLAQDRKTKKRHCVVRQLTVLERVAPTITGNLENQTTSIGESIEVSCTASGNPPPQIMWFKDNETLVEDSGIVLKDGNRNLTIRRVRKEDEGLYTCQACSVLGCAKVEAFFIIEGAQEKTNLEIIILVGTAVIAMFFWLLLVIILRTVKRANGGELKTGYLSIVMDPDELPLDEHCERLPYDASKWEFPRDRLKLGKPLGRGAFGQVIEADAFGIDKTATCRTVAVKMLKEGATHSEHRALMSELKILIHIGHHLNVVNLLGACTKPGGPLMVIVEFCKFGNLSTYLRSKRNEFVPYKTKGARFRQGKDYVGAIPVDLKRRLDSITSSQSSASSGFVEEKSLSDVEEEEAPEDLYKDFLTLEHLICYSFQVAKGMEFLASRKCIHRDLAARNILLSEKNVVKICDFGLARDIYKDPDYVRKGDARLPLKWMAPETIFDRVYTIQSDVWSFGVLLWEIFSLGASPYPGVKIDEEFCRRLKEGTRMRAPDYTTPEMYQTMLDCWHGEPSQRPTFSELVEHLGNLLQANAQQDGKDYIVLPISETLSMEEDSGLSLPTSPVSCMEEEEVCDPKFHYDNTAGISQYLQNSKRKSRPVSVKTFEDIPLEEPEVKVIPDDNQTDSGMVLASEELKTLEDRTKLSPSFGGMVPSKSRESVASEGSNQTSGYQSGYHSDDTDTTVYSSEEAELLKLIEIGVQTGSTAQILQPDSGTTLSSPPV

Topo II [4] = test: In vitro Topo II enzyme inhibition assay; format: biochemical; conditions: read-out: Topo II IC50; mean ± SD
[5] = biological target: EGFR, VEGFR-2, and Topo II; test: In vitro enzyme inhibition assays, three enzymes together; format: biochemical; conditions: read-out: IC50 range on EGFR, VEGFR-2, and Topo II; range over the three enzymes
HepG-2 cells [6] = test: Flow cytometry cell cycle analysis; format: cell-based; conditions: HepG-2, PI staining
HepG-2 cells [7] = test: Annexin V-FITC/PI apoptosis assay; format: cell-based; conditions: HepG-2, 24 h
[8] = biological target: Topoisomerase II (Topo II); conditions: read-out: Topo II IC50; cited from earlier work
Topo IIB = conditions: read-out: Topo IIB IC50; cited from earlier work
[9] = HepG2, 48 h, read-out: In vitro Cytotoxicity IC50 HepG-2
[10] = 48 h, read-out: In vitro Cytotoxicity IC50 HeLa
[11] = MCF7, 48 h, read-out: In vitro Cytotoxicity IC50 MCF-7
[12] = HCT-116, 48 h, read-out: In vitro Cytotoxicity IC50 HCT-116
[13] = HepG2, read-out: Cytotoxic activity category, HepG-2
[14] = read-out: Cytotoxic activity category, HeLa
[15] = MCF7, read-out: Cytotoxic activity category, MCF-7
[16] = HCT-116, read-out: Cytotoxic activity category, HCT-116
[17] = read-out: Cytotoxic activity category, all four tested cancer cell lines
[18] = read-out: IC50 range over the four cancer cell lines

Compound | IC50 (HepG-2 cells [2]; [9]) [µM] | IC50 (HeLa cells; [10]) [µM] | IC50 (MCF-7 cells; [11]) [µM] | IC50 (HCT-116 cells; [12]) [µM] | other results
2-phenylthiomethylbenzimidazole [VI] | – | – | – | – | IC50 (Topo II [1]): 17 µM
Cc1c(C(=O)NNC(=O)Nc2cccc3ccccc23)nnn1Cc1nc2ccccc2[nH]1 [Compound 5c, 2-{1-[(1h-Benzo[d]imidazol-2-yl)methyl]-5-methyl-1H-1,2,3-triazole-4-carbonyl}-N-(naphthalen-1-yl)hydrazinecarboxamide] | 67.4 ± 3.5 | 27.6 ± 2 | 45.4 ± 2.9 | 59.2 ± 3.3 | Cytotoxic activity category, all four tested cancer cell lines [3]: weak to moderate
Cc1c(C(=O)NNC(=S)Nc2ccccc2)nnn1Cc1nc2ccccc2[nH]1 [Compound 5d, 2-{1-[(1h-Benzo[d]imidazol-2-yl)methyl]-5-methyl-1H-1,2,3-triazole-4-carbonyl}-N-phenylhydrazinecarbothioamide] | 57.2 ± 3.2 | 12.4 ± 0.9 | 30.8 ± 2.3 | 41.4 ± 2.8 | IC50 (HepG-2 cells [2]; [13]): 51 to 100 µM; IC50 (HeLa cells; [14]): 11 to 20 µM; IC50 (MCF-7 cells; [15]): 21 to 50 µM; IC50 (HCT-116 cells; [16]): 21 to 50 µM
Cc1ccc(NC(=S)NNC(=O)c2nnn(Cc3nc4ccccc4[nH]3)c2C)cc1 [Compound 5f, 2-{1-[(1h-Benzo[d]imidazol-2-yl)methyl]-5-methyl-1H-1,2,3-triazole-4-carbonyl}-N-(p-tolyl)hydrazinecarbothioamide] | 72.7 ± 3.8 | 58.1 ± 3.1 | 64.1 ± 3.3 | 68.5 ± 3.7 | –
COc1ccc(NC(=S)NNC(=O)c2nnn(Cc3nc4ccccc4[nH]3)c2C)cc1 [Compound 5g, 2-{1-[(1h-Benzo[d]imidazol-2-yl)methyl]-5-methyl-1H-1,2,3-triazole-4-carbonyl}-N-(4-methoxyphenyl)hydrazinecarbothioamide] | 13.6 ± 1 | 8.7 ± 0.6 | 9.39 ± 0.8 | 18.7 ± 1.5 | –
Cc1c(C(=O)NNC(=O)Nc2ccccc2)nnn1Cc1nc2ccccc2[nH]1 [Compound 5h, 2-{1-[(1h-Benzo[d]imidazol-2-yl)methyl]-5-methyl-1H-1,2,3-triazole-4-carbonyl}-N-phenylhydrazinecarboxamide] | 42.1 ± 2.7 | 31.6 ± 2.3 | 38 ± 2.6 | 54.8 ± 3 | Cytotoxic activity category, all four tested cancer cell lines [3]: weak to moderate
Cc1c(C(=O)N/N=C/c2ccc(Cl)cc2)nnn1Cc1nc2ccccc2[nH]1 [Compound 6a, (E)-1-[(1H-Benzo[d]imidazol-2-yl)methyl]-N′-(4-chlorobenzylidene)-5-methyl-1H-1,2,3-triazole-4-carbohydrazide] | 47 ± 2.8 | 35.3 ± 2.5 | 39.5 ± 2.6 | 28.2 ± 2.5 | IC50 [3, 17]: 21 to 50 µM; IC50 [3, 18]: 28.2 to 47 µM
Cc1c(C(=O)N/N=C/c2ccccc2)nnn1Cc1nc2ccccc2[nH]1 [Compound 6b, (E)-1-[(1H-Benzo[d]imidazol-2-yl)methyl]-N′-benzylidene-5-methyl-1H-1,2,3-triazole-4-carbohydrazide] | 84.5 ± 4.1 | 61.2 ± 3.4 | 57.6 ± 3.3 | 75.1 ± 3.8 | –
Cc1c(C(=O)N/N=C/c2cccc(Br)c2)nnn1Cc1nc2ccccc2[nH]1 [Compound 6c, (E)-1-[(1H-Benzo[d]imidazol-2-yl)methyl]-N′-(3-bromobenzylidene)-5-methyl-1H-1,2,3-triazole-4-carbohydrazide] | 56.3 ± 3.2 | 48.8 ± 2.8 | 44.8 ± 2.9 | 63.6 ± 3.3 | –
Cc1c(C(=O)N/N=C/c2cccc([N+](=O)[O-])c2)nnn1Cc1nc2ccccc2[nH]1 [Compound 6d, (E)-1-[(1H-Benzo[d]imidazol-2-yl)methyl]-5-methyl-N′-(3-nitrobenzylidene)-1H-1,2,3-triazole-4-carbohydrazide] | 71.5 ± 3.6 | 52.2 ± 3.1 | 48.2 ± 3 | 36.5 ± 2.7 | –
COc1ccc(/C=N/NC(=O)c2nnn(Cc3nc4ccccc4[nH]3)c2C)cc1OC [Compound 6e, (E)-1-[(1H-Benzo[d]imidazol-2-yl)methyl]-N′-(3,4-dimethoxybenzylidene)-5-methyl-1H-1,2,3-triazole-4-carbohydrazide] | 33.6 ± 2.3 | 29.1 ± 2.3 | 23.7 ± 1.9 | 19.7 ± 1.7 | IC50 (HepG-2 cells [2]; [13]): 21 to 50 µM; IC50 (HeLa cells; [14]): 21 to 50 µM; IC50 (MCF-7 cells; [15]): 21 to 50 µM; IC50 (HCT-116 cells; [16]): 11 to 20 µM
Cc1c(C(=O)N/N=C/c2ccc(N(C)C)cc2)nnn1Cc1nc2ccccc2[nH]1 [Compound 6f, (E)-1-[(1H-Benzo[d]imidazol-2-yl)methyl]-N′-[4-(dimethylamino)benzylidene]-5-methyl-1H-1,2,3-triazole-4-carbohydrazide] | 18.3 ± 1.5 | 22.8 ± 1.9 | 14.7 ± 1.1 | 11.7 ± 0.9 | IC50 (HepG-2 cells [2]; [13]): 11 to 20 µM; IC50 (HeLa cells; [14]): 21 to 50 µM; IC50 (MCF-7 cells; [15]): 11 to 20 µM; IC50 (HCT-116 cells; [16]): 11 to 20 µM
COc1cc(/C=N/NC(=O)c2nnn(Cc3nc4ccccc4[nH]3)c2C)ccc1O [Compound 6g, (E)-1-[(1H-Benzo[d]imidazol-2-yl)methyl]-N′-(4-hydroxy-3-methoxybenzylidene)-5-methyl-1H-1,2,3-triazole-4-carbohydrazide] | 10.9 ± 0.8 | 9.84 ± 0.7 | 7.11 ± 0.5 | 3.34 ± 0.4 | IC50 [3, 17]: 1 to 10 µM; IC50 [3, 18]: 3.34 to 10.9 µM; IC50 (WI-38 cell line): 43.3 ± 2.6 µM; Activity relative to Gefitinib against EGFR (EGFR): ~40%; IC50 (EGFR): 0.131 ± 0.005 µM; Activity relative to Sorafenib against VEGFR-2 (VEGFR-2): 21%; IC50 (Topo II [4]): 8.37 ± 0.49 µM; IC50 [5]: 0.131 to 8.37 µM; Cell cycle distribution G0-G1 (HepG-2 cells [6]): 38.91%; Cell cycle distribution G2/M (HepG-2 cells [6]): 33.81%; Cell cycle distribution Pre-G1 (HepG-2 cells [6]): 36.28%; Cell cycle distribution S (HepG-2 cells [6]): 27.28%; Apoptosis Early (Q4) (HepG-2 cells [7]): 11.02%; Apoptosis Late (Q2) (HepG-2 cells [7]): 19.85%; Apoptosis Total (HepG-2 cells [7]): 30.87%; Necrosis (Q1) (HepG-2 cells [7]): 5.41%
CN1CCN(c2ccc3nc(-c4c(N)c5c(F)cccc5[nH]c4=O)[nH]c3c2)CC1 [Dovitinib] | – | – | – | – | IC50 [8]: 13 µM
COc1cccc2c1C(=O)c1c(O)c3c(c(O)c1C2=O)C[C@@](O)(C(=O)CO)C[C@@H]3O[C@H]1C[C@H](N)[C@H](O)[C@H](C)O1 [Dox, Doxorubicin, reference compound] | 4.5 ± 0.2 | – | – | – | IC50 [3, 18]: 4.17 to 5.57 µM; IC50 (Topo IIB): 0.83 µM
